In series [1] the target is T1, Cytochrome P450 2D6 (Homo sapiens, UniProt P10635). The series can be described thus: Inhibitory effect on Bufuralol 1'-hydroxylation by human liver microsomes (Ki = apparent inhibition constant). The class given is ADME, Microsome.
For series [2], the target named is T1, Cytochrome P450 2D6.
Series [3] addresses T1, Cytochrome P450 2D6. This is another data set of the same source.
Series [4] concerns the target T1, Cytochrome P450 2D6. The source holds these as a separate data set.
In series [5] the target is T1, Cytochrome P450 2D6. The series can be described thus: Apparent inhibitory constant (Ki) for Bufuralol 1'-hydroxylation by human liver microsomes. In kind it is ADME, Microsome.
Series [6] has as its target T1, Cytochrome P450 2D6. The series can be described thus: Inhibition of partially purified cytochrome P450 2D6 1'-hydroxybufuralol formation.
The target of series [7] is T1, Cytochrome P450 2D6. This is another data set of the same source.
The target of series [8] is T1, Cytochrome P450 2D6. The source holds these as a separate data set.
In series [9] the target is T1, Cytochrome P450 2D6. The source holds these as a separate data set.
Series [10] deals with T1, Cytochrome P450 2D6. The series can be described thus: Inhibitory constant for cytochrome P450 2D6. In kind it is ADME.

pKi: −log10 of the molar value.

T1 sequence (P10635 whole entry): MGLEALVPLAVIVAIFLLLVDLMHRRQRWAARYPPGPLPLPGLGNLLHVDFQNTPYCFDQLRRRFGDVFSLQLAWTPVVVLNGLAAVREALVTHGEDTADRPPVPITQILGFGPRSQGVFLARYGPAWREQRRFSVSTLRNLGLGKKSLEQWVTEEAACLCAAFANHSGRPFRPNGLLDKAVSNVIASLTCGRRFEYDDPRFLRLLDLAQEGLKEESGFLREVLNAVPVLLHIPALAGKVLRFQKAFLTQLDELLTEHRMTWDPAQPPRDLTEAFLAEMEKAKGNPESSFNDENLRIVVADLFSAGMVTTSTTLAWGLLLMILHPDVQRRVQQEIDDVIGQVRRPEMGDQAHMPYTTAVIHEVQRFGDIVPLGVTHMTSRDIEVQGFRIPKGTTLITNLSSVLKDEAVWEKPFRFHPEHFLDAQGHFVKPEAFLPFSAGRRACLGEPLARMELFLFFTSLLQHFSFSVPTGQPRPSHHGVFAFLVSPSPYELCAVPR

Take `COC(=O)C1=CO[C@@H](C)[C@H]2C=[N+]3CCc4c([nH]c5ccccc45)[C@@H]3C[C@H]12` [CATHENAMINE]: on Cytochrome P450 2D6 [1], the negative logarithm of the Ki (pKi) is 5.49.

For the compound `CC1OC=C(CO)[C@H]2C[C@H]3c4[nH]c5ccccc5c4CCN3CC12` (some centres undefined), the negative-log Ki (pKi) on Cytochrome P450 2D6 [1] is 5.96.

Regarding `C=CC1CN2CCC1C[C@@H]2[C@@H](O)c1ccnc2ccccc12` (stereo in doubt; 9b), the negative logarithm of the Ki (pKi) is 5.46 on Cytochrome P450 2D6 [2]; 6.00 at Cytochrome P450 2D6 [3]; 5.46 at Cytochrome P450 2D6 [4]; 5.46 at Cytochrome P450 2D6 [5]; 5.59 at Cytochrome P450 2D6 [6]; 5.27 at Cytochrome P450 2D6 [7].

As to RAUWOLFIA SERPENTINA, the pKi at Cytochrome P450 2D6 [8] and on Cytochrome P450 2D6 [5] was 8.34 throughout.

As to `CCC1CN2CCC1CC2[C@@H](O)c1ccnc2ccc(OC)cc12` (some centres undefined) [DIHYDROQUINIDINE], the pKi at Cytochrome P450 2D6 [1] was 7.18.

In the case of `COc1ccc2[nH]cc(CCO)c2c1`, the negative logarithm of the Ki (pKi) on Cytochrome P450 2D6 [1] is 4.00.

With `C=CC1CN2CCC1C[C@@H]2[C@@H](O)c1ccnc2ccccc12` (stereo in doubt; 10b), the pKi on Cytochrome P450 2D6 [2] is 5.14; on Cytochrome P450 2D6 [9], 5.03; on Cytochrome P450 2D6 [4] it was 5.12; at Cytochrome P450 2D6 [1], 5.12; at Cytochrome P450 2D6 [6], 4.60; at Cytochrome P450 2D6 [7] it was 4.80.

For `C=CC1CN2CCC1C[C@@H]2[C@@H](O)c1ccnc2ccc(Cl)cc12` (some centres undefined), the negative logarithm of the Ki (pKi) on Cytochrome P450 2D6 [1] was 6.28.

For `C=CC1CN2CCC1CC2C(=O)c1ccnc2ccc(OC)cc12` (centres undefined), the pKi on Cytochrome P450 2D6 [1] is 6.14.

`CCC1CN2CCC1CC2[C@H](O)c1ccnc2ccccc12` (some centres undefined): the results for the pKi at Cytochrome P450 2D6 [2], on Cytochrome P450 2D6 [4] and at Cytochrome P450 2D6 [7] were 5.02, 5.10 and 4.62, respectively.

With `CN1[C@@H](CC(=O)c2ccccc2)CCC[C@H]1C[C@H](O)c1ccccc1` [LOBELINE], the pKi at Cytochrome P450 2D6 [10] was 6.92.

`C=CC1CN2CCC1C[C@H]2[C@H](O)c1ccnc2ccc(Cl)cc12` (some centres undefined): the pKi at Cytochrome P450 2D6 [1] is 5.46.

`Cc1nccc2c1[nH]c1ccccc12` [HARMAN]: the negative-log Ki (pKi) at Cytochrome P450 2D6 [1] was 4.07.

With `COC(=O)C1=CO[C@@H](C)[C@@H]2CN3CCc4c([nH]c5ccccc45)[C@@H]3C[C@H]12` [TETRAHYDROALSTONINE], the negative-log Ki (pKi) on Cytochrome P450 2D6 [1] is 5.96.

Take `CC[C@H]1CN2CC[C@H]1C[C@H]2[C@H](O)c1ccnc2ccc(OC)cc12` [HYDROQUININE]: the negative logarithm of the Ki (pKi) at Cytochrome P450 2D6 [1] is 5.40.

`CC(C)N1CCC(c2ccccc2)(c2ccccc2)CC1` [PRODIPINE] had a pKi on Cytochrome P450 2D6 [10] of 8.32.

With `O=C(O)[C@H]1[C@H]2C[C@H]3c4[nH]c5ccccc5c4CCN3C[C@@H]2CC[C@H]1O`, the pKi on Cytochrome P450 2D6 [1] is 5.20.

For `C=CC1C[N+]2(c3ccccc3)CCC1CC2C(O)c1ccnc2ccc(OC)cc12` (centres undefined), the pKi on Cytochrome P450 2D6 [1] is 4.60.

Turning to `COc1ccc2ncccc2c1`, the pKi at Cytochrome P450 2D6 [1] is under 3.00.

Take `COC(=O)C1=CNC(C)C2CN3CCc4c([nH]c5ccccc45)[C@@H]3C[C@H]12` (some centres undefined): at Cytochrome P450 2D6 [1], the pKi is 5.54.

Regarding `COC(=O)C1=CO[C@@H](C)[C@H]2C[n+]3ccc4c([nH]c5ccccc54)c3C[C@H]12`, the negative-log Ki (pKi) on Cytochrome P450 2D6 [1] is 5.66.

Take `c1ccc2c(c1)[n-]c1c3[n+](ccc12)CC1CCCCC1C3` (centres undefined) [SEMPERVIRINE]: the pKi on Cytochrome P450 2D6 [1] was 5.01.

On to `CCC1CN2CCC1CC2C(O)c1ccnc2ccccc12` (centres undefined), for which the values for the negative logarithm of the Ki (pKi) on Cytochrome P450 2D6 [2], on Cytochrome P450 2D6 [4] and at Cytochrome P450 2D6 [7] were 5.55, 5.80 and 5.49, respectively.

For `COC(=O)C1=CO[C@H](C)[C@H]2CN3CCc4c([nH]c5ccccc45)[C@@H]3C[C@H]12`, at Cytochrome P450 2D6 [1], the negative logarithm of the Ki (pKi) is 7.77.

Source of the values: ChEMBL document CHEMBL1126649, “Development of a pharmacophore for inhibition of human liver cytochrome P-450 2D6: molecular modeling and inhibition studies” (J Med Chem, 1993).
